Experimental findings from PMC5342071, “A first generation inhibitor of human Greatwall kinase, enabled by structural and functional characterisation of a minimal kinase domain construct” (Oncotarget, 2016) are described below.

In general, Km refers to the substrate concentration at which the rate is half of its maximum. What is called kcat is the number of substrate molecules converted per active site and unit of time at saturation. The IC50 is the concentration that inhibits the measured activity by half. What is called inhibition is how much of the control response was suppressed.

Holding throughout (type): biochemical
Data set [1] addresses T1, hGWL^FL (Homo sapiens, UniProt Q96GX5).
T1 construct: N-terminally FLAG-tagged full-length human GWL; made in house; host or cells: HEK293T cells, transfected and nocodazole-arrested; protein captured on anti-Flag M2 beads
T1 sequence (Q96GX5 1-879): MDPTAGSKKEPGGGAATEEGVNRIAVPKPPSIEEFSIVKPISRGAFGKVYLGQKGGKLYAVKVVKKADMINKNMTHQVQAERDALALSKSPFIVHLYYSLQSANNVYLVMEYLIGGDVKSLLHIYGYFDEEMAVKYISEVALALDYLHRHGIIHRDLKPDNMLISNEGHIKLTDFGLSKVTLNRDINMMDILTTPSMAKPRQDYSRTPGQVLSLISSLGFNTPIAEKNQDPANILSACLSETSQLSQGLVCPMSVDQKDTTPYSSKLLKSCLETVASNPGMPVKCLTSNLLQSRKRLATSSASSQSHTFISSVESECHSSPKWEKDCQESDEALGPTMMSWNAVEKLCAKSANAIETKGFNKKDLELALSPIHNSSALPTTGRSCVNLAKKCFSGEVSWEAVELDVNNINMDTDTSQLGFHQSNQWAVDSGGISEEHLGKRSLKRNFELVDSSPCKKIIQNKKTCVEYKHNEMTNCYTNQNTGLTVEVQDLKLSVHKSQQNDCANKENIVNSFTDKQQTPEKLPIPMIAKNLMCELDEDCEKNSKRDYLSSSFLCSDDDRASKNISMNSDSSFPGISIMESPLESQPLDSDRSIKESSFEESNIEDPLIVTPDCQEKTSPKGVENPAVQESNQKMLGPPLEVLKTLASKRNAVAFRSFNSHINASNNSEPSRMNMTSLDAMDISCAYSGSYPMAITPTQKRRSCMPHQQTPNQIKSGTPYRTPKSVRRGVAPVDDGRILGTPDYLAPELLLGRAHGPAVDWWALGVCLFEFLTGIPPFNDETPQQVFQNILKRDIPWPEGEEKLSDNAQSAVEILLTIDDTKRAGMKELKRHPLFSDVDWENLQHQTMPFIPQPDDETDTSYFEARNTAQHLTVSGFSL
Description: Immunoprecipitation kinase assay with Flag-tagged hGWL^FL (p-ENSA western). Conditions: for inhibition of hGWL^FL (result in words): immunoprecipitation kinase assay; for IC50: immunoprecipitated Flag-tagged hGWL^FL, read-out: IC50 GWL^FL. As for the experimental part:
500 mM NaCl, and 0.5 mM TCEP) diluted to desired concentration or immunoprecipitated hGWL on beads with ultra-pure ATP [Promega, 25 µM] and His-tagged substrate  α-endosulfine (ENSA, 2 µM) in kinase assay buffer (50 mM Tris-HCl pH 7.5, 0.5 mM EGTA, 150 mM NaCl, 0.1% v/v NP-40 and 15 mM MgCl2). The […]
(dithiothreitol), 50% v/v Glycerol, 10% v/v SDS (sodium dodecyl sulphate), and 0.25M Tris-HCl pH 6.8) or Kinase-Glo Max reagent [Promega]. Recombinant His-tagged ENSA was purified using Ni-NTA agarose [QIAGEN] from BL21 E. coli following the manufacturer’s recommended protocol. […]
(§1) All kinase assays were repeated thrice per assay condition and each point on the concentration-dependent response curves represents the mean ± […]
Immunoprecipitation Kinase Assay
HEK293T cells were transfected with 10 µg of plasmid (Flag-tagged hGWLFL or GFP; pcDNA3-EGFP, Addgene, Cambridge MA, USA) using CaCl2. […]
incubated for a further 16–18 h. Cells were collected and washed in PBS-A followed by lysis on ice for 20 min in 1mL IP buffer (50 mM Tris-HCl pH 7.5, 150 mM NaCl, 10% v/v glycerol, 0.5% v/v NP-40, 1 mM EDTA supplemented with protease and phosphatase inhibitors (Complete and PhosStop; Roche Diagnostics)). Samples were then sonicated and clarified by centrifugation at 13,000 rpm for 30 min at 4°C. To capture Flag-tagged […]
hGWLFL, 100 µl of lysate was diluted 5-fold with IP buffer and combined with 3 µl anti-Flag M2 magnetic Dynabeads [Sigma-Aldrich] overnight at 4 °C. After sequential washes with IP buffer, 1:1 mix of IP and kinase assay buffers and a final wash in kinase assay buffer, the beads were then used in the kinase assay. The reaction was stopped by adding SDS loading buffer and analysed by western blot: p-ENSA and GWL levels were detected using the anti-phospho(Ser67)-ENSA and anti-MASTL(GWL, Prestige) antibodies. Activity was measured as the p-ENSA/GWL ratio and % kinase activity was normalised to the DMSO control. All kinases assays were repeated thrice per assay condition and each point on the concentration-dependent response curves represents the mean ± 1 S.D. […]

Data set [2] addresses T2, hGWL-KinDom (Homo sapiens, UniProt Q96GX5).
T2 construct: that encoded amino acids (aa) 1-194 + ‘RTFC’ + 740-879 of hGWL; GST (rhinovirus 3C-protease cleavable) (N, cleaved yes); made in house; host or cells: E. coli Rosetta2(DE3)
Description: Kinase-Glo Max luminescence kinase assay with hGWL-KinDom. Conditions: for Km / kcat: substrate of hGWL-KinDom, Kinase-Glo Max. As for the experimental part: Non-radioactive kinase assays were set-up by combining hGWL-KinDom (305 µM in 20 mM HEPES pH 7.5, FL 500 mM NaCl, and 0.5 mM TCEP) diluted to desired concentration or immunoprecipitated hGWL on beads with ultra-pure ATP [Promega, 25 µM] and His-tagged substrate  α-endosulfine (ENSA, 2 µM) in kinase assay buffer (50 mM Tris-HCl pH 7.5, 0.5 mM EGTA, 150 mM NaCl, 0.1% v/v NP-40 and 15 mM MgCl2). The reaction was allowed to proceed for 30 min at 37 °C or another indicated time-point after which it was stopped with either SDS loading buffer (5X buffer, including 0.25 % w/v Bromophenol blue, 0.5 M DTT (dithiothreitol), 50% v/v Glycerol, 10% v/v SDS (sodium dodecyl sulphate), and 0.25M Tris-HCl pH 6.8) or Kinase-Glo Max reagent [Promega]. Recombinant His-tagged ENSA was purified using Ni-NTA agarose [QIAGEN] from BL21 E. coli following the manufacturer’s recommended protocol. […]
as §1
After stopping the above non-radioactive kinase assay with 1 volume of Kinase-Glo Max reagent the mixture was allowed to incubate for a further 15 min. To detect consumption of ATP, samples were transferred to white, flat-bottom 96-well plates [Thermo Fisher Scientific, Loughborough, UK] and luminescence was detected using a POLARstar Omega micro-plate reader [BMG Labtech GmbH, Ortenberg, Germany]. As this assay measures ATP, activity or ATP turnover was measured as the -ΔRLU. […]
For orientation: Kinase-Glo reads ATP consumption through a luciferase reaction.

For data set [3], the target named is T3, PKA (Homo sapiens, UniProt P17612).
T3 construct: purchased Promega
Nature of the data set: PKA kinase assay (Promega). As to the method: (§2) hGWLFL, 100 µl of lysate was diluted 5-fold with IP buffer and combined with 3 µl anti-Flag M2 magnetic Dynabeads [Sigma-Aldrich] overnight at 4 °C. After sequential washes with IP buffer, 1:1 mix of IP and kinase assay buffers and a final wash in kinase assay buffer, the beads were then used in the kinase assay. The reaction was stopped by adding SDS loading buffer and analysed by western blot: p-ENSA and GWL levels were detected using the anti-phospho(Ser67)-ENSA and anti-MASTL(GWL, Prestige) antibodies. Activity was measured as the p-ENSA/GWL ratio and % kinase activity was normalised to the DMSO control. All kinases assays were repeated thrice per assay condition and each point on the concentration-dependent response curves represents the mean ± 1 S.D.
(§3) PKA, ROCK1 and CDK2 kinase assays […]
(§4) Data were normalised against the AllStars negative control siRNA treated cells and values obtained from 3 – 5 biological replicates were reported as the mean ± 1 S.D.

The target in data set [4] is T4, ROCK1 (Homo sapiens, UniProt Q13464).
T4 construct: purchased Promega
T4 sequence (Q13464 whole entry): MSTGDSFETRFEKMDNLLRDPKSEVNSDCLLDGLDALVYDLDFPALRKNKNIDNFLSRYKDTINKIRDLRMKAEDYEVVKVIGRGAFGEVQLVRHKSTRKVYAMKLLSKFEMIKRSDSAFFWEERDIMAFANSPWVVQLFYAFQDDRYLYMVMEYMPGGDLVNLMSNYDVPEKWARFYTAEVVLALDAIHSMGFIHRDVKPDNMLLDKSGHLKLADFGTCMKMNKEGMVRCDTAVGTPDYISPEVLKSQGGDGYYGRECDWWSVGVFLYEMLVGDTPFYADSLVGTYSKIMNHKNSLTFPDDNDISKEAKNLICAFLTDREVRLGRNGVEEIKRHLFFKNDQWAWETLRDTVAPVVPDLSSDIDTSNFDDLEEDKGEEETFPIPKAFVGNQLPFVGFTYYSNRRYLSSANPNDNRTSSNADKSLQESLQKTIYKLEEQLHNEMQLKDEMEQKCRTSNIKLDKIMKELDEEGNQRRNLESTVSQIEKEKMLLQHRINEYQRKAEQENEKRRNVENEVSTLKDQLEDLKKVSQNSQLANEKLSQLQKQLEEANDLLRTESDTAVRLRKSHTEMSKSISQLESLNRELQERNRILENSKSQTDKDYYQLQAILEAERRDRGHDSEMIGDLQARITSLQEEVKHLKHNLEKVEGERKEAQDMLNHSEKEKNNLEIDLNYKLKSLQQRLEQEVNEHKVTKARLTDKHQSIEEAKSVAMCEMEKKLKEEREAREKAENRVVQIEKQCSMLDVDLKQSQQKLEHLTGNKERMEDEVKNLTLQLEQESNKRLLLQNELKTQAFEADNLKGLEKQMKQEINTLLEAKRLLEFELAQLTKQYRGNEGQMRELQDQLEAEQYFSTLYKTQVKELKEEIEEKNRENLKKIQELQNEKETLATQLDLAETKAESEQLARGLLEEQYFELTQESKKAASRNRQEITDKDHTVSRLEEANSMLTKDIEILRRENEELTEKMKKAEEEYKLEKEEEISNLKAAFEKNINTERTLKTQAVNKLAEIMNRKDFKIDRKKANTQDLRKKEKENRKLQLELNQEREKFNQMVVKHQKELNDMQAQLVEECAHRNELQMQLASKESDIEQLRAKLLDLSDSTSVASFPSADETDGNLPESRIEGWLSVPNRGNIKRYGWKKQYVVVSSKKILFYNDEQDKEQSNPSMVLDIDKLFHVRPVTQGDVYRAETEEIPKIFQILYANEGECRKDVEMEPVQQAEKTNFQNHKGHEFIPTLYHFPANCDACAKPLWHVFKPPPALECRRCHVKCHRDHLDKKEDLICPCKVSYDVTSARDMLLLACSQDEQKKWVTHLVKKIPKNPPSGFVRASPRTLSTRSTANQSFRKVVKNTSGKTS
Nature of the data set: ROCK1 kinase assay (Promega). As to the method:
as §2, §3, §4

Data set [5] concerns the target T2, hGWL-KinDom. Description: Inhibitor screen of pooled library with hGWL-KinDom (Kinase-Glo Max). Conditions: for inhibition at 10 µM: 10 μM screening concentration, ATP concentration = 45 μM; for Rank in inhibitor screen: rank by potency in the screen. As to the method:
Two small-molecule compound libraries, enriched with pharmacophores known to interact with the ATP-binding site of protein kinases, were screened as a pooled library in a Kinase-GloMax luminescence-kinase assay. page 4: […] Dynabeads [Sigma-Aldrich] overnight at 4 °C. After sequential washes with IP buffer, 1:1 mix of IP and kinase assay buffers and a final wash in kinase assay buffer, the beads were then used in the kinase assay. The reaction was stopped by adding SDS loading buffer and analysed by western blot: p-ENSA and GWL levels were detected using the anti-phospho([…] and […], Prestige) antibodies. Activity was measured as the […] ratio and % kinase activity was normalised to the DMSO control. All kinases assays were repeated thrice per assay condition and each point on the concentration-dependent response curves represents the mean ± 1 S.D. PKA, ROCK1 and CDK2 kinase assays PKA and ROCK1 assays (Promega) were carried out according to the manufacturer's protocols and CDK2 assays were carried out with Histone H1 as substrate (1 µg per 20 µl reaction) according to our Kinase-Glo Max assay. CDK2 was expressed and purified from E. coli as previously described (10). Inhibitor Screens with hGWL-KinDom Two small-molecule compound libraries, enriched with pharmacophores known to interact with the ATP- binding site of protein kinases, were kindly provided by GlaxoSmithKline and Roche. We used this pooled library (582 compounds, 10 µM screening concentrations) in a Kinase-Glo Max luminescence kinase assay (11, 12) as part of a two-point screen against hGWL-KinDom kinase activity, using ATP at fixed concentrations of […] With STU as positive control at a […] 4A,B). […] rate = 5.8%; Supplementary Figure 4A). Molecular Docking - AutoDock AT13148 and GKI-1/2 were docked into the ATP-binding site of the hGWL-KinDom crystal structure (where the disordered C-helix was homology-modelled) using AutoDock 4.2.6. PDB format files for the ligand and kinase domain were pre-processed using AutoDock Tools 1.5.6 as described in Mohamed, et al. (13). (Figure 4 and Supplementary Figure 6A,B). Immunofluorescence and Time-lapse video microscopy 2.5 X 105 HeLa cells were plated onto glass coverslips in a 6-well plate, or 4-well µ-slides [Ibidi GmbH] were seeded with 5 X 104 cells and then transfected with Qiagen AllStars negative control or Hs_MASTL_6 siRNAs (14) using Lipofectamine RNAiMax [ThermoFisher Scientific]. Media was exchanged with fresh media the next day. 48 hours after siRNA treatment, only cells to be used for immunofluorescence (IF) were treated with nocodazole (200 ng/mL) and DMSO or GKI-1 at the indicated concentration. For IF, cells were fixed, stained with primary mouse anti-GWL and rabbit anti-p-ENSA antibodies, secondary Alexa Fluor 647-conjugated anti- rabbit and Alexa Fluor 488-conjugated anti-mouse antibodies, DAPI and mounted onto glass microscope slides using Diamond Antifade Mountant [Molecular Probes, ThermoFisher Scientific]. Quantitation of IF images was performed using the […]-Content Screening Station [Olympus Life Science] which acquired 220, 40x images per cover slip. Data were normalised against the AllStars negative control siRNA treated cells and values obtained from three biological replicates were reported as the mean ± 1 S.D. To assist with selecting mitotic cells, ScanR imaging software was utilised to gate for mitotic cells using the circularity factor and total DAPI parameters. To produce time-lapse videos, after 48 hours and cell treatment with DMSO or compound (cells were treated with GKI-1 for 4-h before image acquisition) cells plated in 4-well µ-slides were imaged every 5 minutes for 8.5 hours on an Olympus IX73 microscope, using a 40 x 0.95NA air objective, and recorded on an Orca-Flash 4.0 CMOS camera [Hamatsu]. The computer program Fiji (http://www.fiji.sc/Fiji) was used to generate videos from image sequence TIF files. Data were normalised against the AllStars negative control siRNA treated cells and […]

T2 sequence (Q96GX5 with tags, fused parts or gaps limits assumed): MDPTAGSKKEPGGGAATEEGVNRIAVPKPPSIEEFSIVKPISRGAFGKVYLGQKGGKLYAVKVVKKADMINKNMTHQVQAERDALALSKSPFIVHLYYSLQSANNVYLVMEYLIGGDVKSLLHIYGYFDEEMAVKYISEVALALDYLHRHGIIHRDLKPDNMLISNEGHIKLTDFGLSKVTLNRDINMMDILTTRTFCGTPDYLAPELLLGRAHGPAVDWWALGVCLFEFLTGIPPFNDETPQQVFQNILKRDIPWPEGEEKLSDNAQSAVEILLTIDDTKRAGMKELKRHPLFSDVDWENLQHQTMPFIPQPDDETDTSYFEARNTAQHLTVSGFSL

With `Clc1ccc(Nc2ccc(-c3cn[nH]c3)cc2)cc1` [GKI-2, N-(4-chorophenyl)-4-(1H-pyrazol-4-yl)aniline], in data set [1], the “inhibition of hGWL^FL (result in words)” value was “did not demonstrably inhibit”.

For the molecule `Nc1ncnc2c1ncn2[C@@H]1O[C@H](COP(=O)(O)OP(=O)(O)OP(=O)(O)O)[C@@H](O)[C@H]1O` [ATP], in data set [2], the Km amounted to 17.2 ± 2.4 µM and the kcat is 10.4 ± 0.48 s⁻¹.

`NC[C@@](O)(c1ccc(Cl)cc1)c1ccc(-c2cn[nH]c2)cc1` [AT13148, reference compound]: the IC50 is 125 ± 1.7 nM in data set [2] (Kinase-Glo Max assay, read-out: IC50 GWL-KinDom); 5900 nM in data set [1]; about 11 nM in data set [3] (refers to Table 2); 6.13 ± 2 nM in data set [3] (± S.D.); about 6 nM in data set [4] (refers to Table 2); 11.4 ± 4 nM in data set [4] (± S.D.). Also, the “inhibitory ratio (IC50 GWL^FL/IC50 GWL-KinDom)” value in data set [1] (for GKI-1: EC50 hGWL^FL vs IC50 hGWL-KinDom) is listed as 45. Further, in data set [1] (hGWL^FL inhibition), the “AT13148 IC50/STU IC50” value is ~ 2.

Consider `CNC(C#Cc1c(F)ccc2c1C(=Cc1[nH]ccc1OC)C(=O)N2)CO` (stereo not drawn) [GRI-2], for which, in data set [1], the IC50 is over 100000 nM and the “inhibition of hGWL^FL (result in words)” value is on record as “did not demonstrably inhibit”. For the same molecule, in data set [5], the inhibition at 10 µM amounted to 37% and the “Rank in inhibitor screen” value is listed as 5.

As for `COc1cc[nH]c1/C=C1\C(=O)Nc2ccc(F)c(C#CC3(O)CCNCC3)c21` [GRI-1], in data set [1], the IC50 is over 100000 nM and the “inhibition of hGWL^FL (result in words)” value is listed as “did not demonstrably inhibit”. Further, in data set [5], the inhibition at 10 µM was determined as 67.6% and the “Rank in inhibitor screen” value is recorded as 1.

B1: ENSA: His-tagged recombinant α-endosulfine, GWL substrate (protein, UniProt O43768 2-121, looked up)
Alpha-endosulfine: SQKQEEENPAEETGEEKQDTQEKEGILPERAEEAKLKAKYPSLGQKPGGSDFLMKRLQKGQKYFDSGDYNMAKAKMKNKQLPSAGPDKNLVTGDHIPTPQDLPQRKSSLVTSKLAGGQVE
modifications: His tag
notes: His-tagged recombinant α-endosulfine, GWL substrate
Turning to B1, in data set [2], the Km came out at 1.6 ± 0.3 µM and the kcat was found to be 0.2 ± 0.01 s⁻¹.
